Key:
Caspase-1 = biological target: T1, Caspase-1 (Homo sapiens, UniProt P29466); assay: Caspase-1 enzyme inhibition assay (Ac-YVAD-pNA substrate), IC50; type: biochemical
T1 construct: purchased Enzo Biosciences
T1 sequence (P29466 120-297 limits assumed): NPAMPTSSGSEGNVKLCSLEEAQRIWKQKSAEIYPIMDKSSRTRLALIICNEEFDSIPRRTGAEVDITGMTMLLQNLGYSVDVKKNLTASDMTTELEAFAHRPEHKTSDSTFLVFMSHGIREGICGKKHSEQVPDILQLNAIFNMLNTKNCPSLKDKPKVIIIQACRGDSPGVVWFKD
T1 sequence (P29466 317-404 limits assumed): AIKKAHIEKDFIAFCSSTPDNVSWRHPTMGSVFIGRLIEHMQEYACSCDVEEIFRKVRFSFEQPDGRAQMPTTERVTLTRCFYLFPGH
In short: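 Buffer was 50 mM HEPES pH 7.4, 100 mM NaCl, 0.1% CHAPS, 1 mM EDTA, 10% glycerol and 10 mM DTT. Caspase-1 was reacted with 200 μM Ac-YVAD-pNA (final). Release of p-nitroaniline was followed continuously at 405 nm, and rates were taken from the linear slope (ε 10,500 M-1 cm-1).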

Caspase-3 = biological target: T2, Caspase-3 (Homo sapiens, UniProt P42574); assay: Caspase-3 enzymatic inhibition assay, IC50; type: biochemical; conditions: read-out: Caspase 3 enzyme inhibition IC50
T2 construct: purchased Enzo Biosciences
T2 sequence (P42574 29-175 limits assumed): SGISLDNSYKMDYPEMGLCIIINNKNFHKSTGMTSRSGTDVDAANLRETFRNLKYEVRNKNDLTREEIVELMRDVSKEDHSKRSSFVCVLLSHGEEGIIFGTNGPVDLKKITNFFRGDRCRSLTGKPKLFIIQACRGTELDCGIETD
T2 sequence (P42574 176-277 limits assumed): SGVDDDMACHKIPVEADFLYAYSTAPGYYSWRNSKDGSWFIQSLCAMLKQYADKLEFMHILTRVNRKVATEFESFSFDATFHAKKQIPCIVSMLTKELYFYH
In short: (§1)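 Following manufacturer-specified conditions, enzymatic activity of purchased human caspase-3, -6 and -7 was measured with compound present to obtain IC50s.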

Caspase 6 = biological target: T3, Caspase 6 (Homo sapiens, UniProt P55212); assay: Caspase 6 enzymatic inhibition assay, IC50; type: biochemical; conditions: read-out: Caspase 6 enzyme inhibition IC50
T3 construct: purchased Enzo Biosciences
T3 sequence (P55212 24-179 limits assumed): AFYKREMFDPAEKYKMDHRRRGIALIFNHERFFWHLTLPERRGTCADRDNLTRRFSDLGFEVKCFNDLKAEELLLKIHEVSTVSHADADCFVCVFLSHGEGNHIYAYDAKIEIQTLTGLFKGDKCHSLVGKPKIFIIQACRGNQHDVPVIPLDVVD
T3 sequence (P55212 194-293 limits assumed): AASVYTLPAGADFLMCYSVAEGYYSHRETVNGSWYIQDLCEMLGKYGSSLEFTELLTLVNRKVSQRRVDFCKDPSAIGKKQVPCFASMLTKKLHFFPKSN
In short: as §1

Caspase 7 = biological target: T4, Caspase 7 (Homo sapiens, UniProt P55210); assay: Caspase 7 enzymatic inhibition assay, IC50; type: biochemical; conditions: read-out: Caspase 7 enzyme inhibition IC50
T4 construct: purchased Enzo Biosciences
T4 sequence (P55210 24-198 limits assumed): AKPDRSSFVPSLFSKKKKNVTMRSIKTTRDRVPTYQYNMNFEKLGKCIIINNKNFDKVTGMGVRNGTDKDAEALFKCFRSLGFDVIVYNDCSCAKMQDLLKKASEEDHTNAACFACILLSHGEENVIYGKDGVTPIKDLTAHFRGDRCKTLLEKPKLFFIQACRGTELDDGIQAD
T4 sequence (P55210 207-303 limits assumed): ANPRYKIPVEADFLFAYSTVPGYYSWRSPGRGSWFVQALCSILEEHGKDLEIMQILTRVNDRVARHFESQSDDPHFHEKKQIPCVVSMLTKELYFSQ
In short: as §1

IL-1β = assay: Inhibition of LPS-stimulated IL-1β in THP-1 cells (ELISA); type: cell-based, human; conditions: Homo sapiens, 10 micromolar, read-out: Percent Inhibition of IL1-β
Experimental: Compounds in the present invention were tested in THP-1 cells, a human monocyte cell line, to assess the inhibition of the inflammatory cytokine IL-1β. THP-1 cells (ATCC TIB-202) were grown in culture and seeded in 96 well plates at a concentration of 200,000 cells per well with a total volume of 150 μL. Plated cells were incubated overnight at 37 degrees C. under an atmosphere of 5% CO2. Media was removed from cells which were washed with PBS. Test compounds were diluted in DMSO stock solution and serially diluted appropriately for initial screening and IC50 determinations. LPS in serum free media (140 μL of […]) was added to each well to stimulate IL-1β production. IL-1β was measured by ELISA assay kit (R&D Systems) per the manufacturers instructions.
IC50 values for the inhibition of IL-1 in THP 1 cells were determined from dose response studies.

Jurkat cells = assay: Prevention of Fas-induced apoptosis in Jurkat cells (WST-8); type: cell-based; conditions: Homo sapiens, 10 micromolar, read-out: % Prevention of Fas - induced Jurkat cell apoptosis at 10 micromolar
Experimental: Compounds of the present invention were evaluated in Jurkat cells, a human T-lymphocyte cell line, to evaluate compounds ability to inhibit apoptotic cell death. Jurkat cells, Clone E6-1 (ATCC TIB-152) were grown in culture maintain a cell density between 0.5-2 million cells/mL. Cells were tested for viability and countion with typan blue stain before use. Test compounds were addedd to 96 well plates and Jurkat cells were added at a concentration of approximately 100,000 cells per well and mixed thoroughly by action of pipetting. Plated cells were incubated for 1 hour at 37 degrees C. under an atmosphere of 5% CO2. Anti-Fas antibody was added and mixed by pipet action. Plates were incubated for 20 hours at 37 degrees C. under an atmosphere of 5% CO2. 10 microliters of thawed WST-8 solution was added to each well and incubated for 4 hours. Absorbance was measured at 450 nm and control reading at […] using a SpectraMax ID5 plate reader. Apoptotic cell death is executed by caspases 3, 7 and 6. Compounds that lack activity against these caspases will not prevent the death of Jurkat cells and is a functional test of selectivity for inflammatory over apoptotic caspases.
IC50 values to protect against Fas induced apoptosis and improve survival of Jurkat cells were determined from dose response studies.

Row | IC50 (Caspase-1) [µM] | IC50 (Caspase-3) [µM] | IC50 (Caspase 6) [µM] | IC50 (Caspase 7) [µM] | Compound | inhibition at 10 µM (IL-1β) [%] | inhibition at 10 µM (Jurkat cells) [%]
1 | ≤ 0.01 | ≥ 1 | ≥ 1 | ≥ 1 | C[C@H](NC(=O)C(=O)Nc1ccc(F)cc1)C(=O)N[C@@H](CCC(=O)O)C(=O)COc1c(F)c(F)cc(F)c1F [Example 17, (S)-4-((S)-2-(2-((4-fluorophenyl)amino)-2-oxoacetamido)propanamido)-5-oxo-6-(2,3,5,6-tetrafluorophenoxy)hexanoic acid] | > 90 | ≤ 10
2 | ≤ 0.01 | ≥ 1 | ≥ 1 | ≥ 1 | C[C@H](NC(=O)C(=O)Nc1cccc(F)c1)C(=O)N[C@@H](CCC(=O)O)C(=O)COc1c(F)c(F)cc(F)c1F [Example 18, (S)-4-((S)-2-(2-((3fluorophenyl)amino)-2-oxoacetamido)propanamido)-5-oxo-6-(2,3,5,6-tetrafluorophenoxy)hexanoic acid] | > 90 | ≤ 10
3 | ≤ 0.01 | ≥ 1 | ≥ 1 | ≥ 1 | Cc1ccc(NC(=O)C(=O)N[C@@H](C)C(=O)N[C@@H](CCC(=O)O)C(=O)COc2c(F)c(F)cc(F)c2F)cc1 [Example 19, (S)-4-((S)-2-(2-((4-methylphenyl)amino)-2-oxoacetamido)propanamido)-5-oxo-6-(2,3,5,6-tetrafluorophenoxy)hexanoic acid] | > 90 | ≤ 10
4 | ≤ 0.01 | ≥ 1 | ≥ 1 | ≥ 1 | Cc1cccc(NC(=O)C(=O)N[C@@H](C)C(=O)N[C@@H](CCC(=O)O)C(=O)COc2c(F)c(F)cc(F)c2F)c1 [Example 20, (S)-4-((S)-2-(2-((3-methylphenyl)amino)-2-oxoacetamido)propanamido)-5-oxo-6-(2,3,5,6-tetrafluorophenoxy)hexanoic acid] | > 90 | ≤ 10
